“And” between values parts separate entries of the source, which are not always exact repeats. Equal entries are not always repeated.
What was measured:
[1] = biological target: Human immunodeficiency virus type 1 protease (Human immunodeficiency virus 1, UniProt Q72874); experiment: Inhibitory concentration against HIV aspartyl protease
[2] = biological target: T1, Nitric oxide synthase 3 (Homo sapiens) (UniProt P29474); experiment: Inhibitory activity against Endothelial nitric oxide synthase
T1 sequence (whole entry): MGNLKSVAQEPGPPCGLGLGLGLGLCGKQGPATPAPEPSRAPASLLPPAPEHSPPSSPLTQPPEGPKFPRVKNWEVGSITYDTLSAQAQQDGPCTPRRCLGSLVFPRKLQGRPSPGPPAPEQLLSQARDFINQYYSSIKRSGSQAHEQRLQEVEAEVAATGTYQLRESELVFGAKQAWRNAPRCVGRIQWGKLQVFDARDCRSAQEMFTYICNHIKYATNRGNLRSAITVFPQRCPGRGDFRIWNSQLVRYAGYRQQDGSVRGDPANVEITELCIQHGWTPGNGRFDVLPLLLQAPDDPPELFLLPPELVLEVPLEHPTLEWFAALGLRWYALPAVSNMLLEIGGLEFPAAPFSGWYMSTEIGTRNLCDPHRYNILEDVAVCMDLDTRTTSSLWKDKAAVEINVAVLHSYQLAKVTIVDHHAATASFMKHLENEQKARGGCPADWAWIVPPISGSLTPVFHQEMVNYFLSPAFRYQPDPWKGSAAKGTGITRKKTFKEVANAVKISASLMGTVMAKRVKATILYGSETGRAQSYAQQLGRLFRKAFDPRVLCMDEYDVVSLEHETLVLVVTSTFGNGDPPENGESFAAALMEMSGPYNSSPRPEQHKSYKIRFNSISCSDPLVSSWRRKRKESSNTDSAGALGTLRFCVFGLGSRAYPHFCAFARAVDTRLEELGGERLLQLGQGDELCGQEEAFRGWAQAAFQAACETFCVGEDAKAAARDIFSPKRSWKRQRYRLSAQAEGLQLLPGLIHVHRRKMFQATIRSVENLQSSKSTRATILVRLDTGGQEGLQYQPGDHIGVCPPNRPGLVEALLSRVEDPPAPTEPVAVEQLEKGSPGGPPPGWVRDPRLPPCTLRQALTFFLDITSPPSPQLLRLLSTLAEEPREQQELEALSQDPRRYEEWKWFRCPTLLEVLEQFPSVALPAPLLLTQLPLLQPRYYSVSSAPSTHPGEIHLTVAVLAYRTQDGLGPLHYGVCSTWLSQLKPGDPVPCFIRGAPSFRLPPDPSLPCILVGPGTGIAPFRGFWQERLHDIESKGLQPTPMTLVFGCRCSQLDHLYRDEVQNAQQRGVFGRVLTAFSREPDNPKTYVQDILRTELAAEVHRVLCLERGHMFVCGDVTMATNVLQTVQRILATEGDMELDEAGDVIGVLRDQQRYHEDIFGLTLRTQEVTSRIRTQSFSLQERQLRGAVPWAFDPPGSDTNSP

[3] = Inhibitory concentration against Alpha-chymotrypsin
[4] = biological target: Nitric oxide synthase 1 (Homo sapiens) (UniProt P29475); experiment: Inhibitory activity against Neuronal nitric oxide synthase
[5] = biological target: Nitric oxide synthase, inducible (Homo sapiens) (UniProt P35228); experiment: Inhibitory activity against Inducible nitric oxide synthase
Chymotrypsin-C = biological target: T2, Chymotrypsin-C (Homo sapiens, UniProt Q99895); experiment: Inhibitory concentration against Alpha-chymotrypsin; In active at 100 uM
T2 sequence (Q99895 whole entry): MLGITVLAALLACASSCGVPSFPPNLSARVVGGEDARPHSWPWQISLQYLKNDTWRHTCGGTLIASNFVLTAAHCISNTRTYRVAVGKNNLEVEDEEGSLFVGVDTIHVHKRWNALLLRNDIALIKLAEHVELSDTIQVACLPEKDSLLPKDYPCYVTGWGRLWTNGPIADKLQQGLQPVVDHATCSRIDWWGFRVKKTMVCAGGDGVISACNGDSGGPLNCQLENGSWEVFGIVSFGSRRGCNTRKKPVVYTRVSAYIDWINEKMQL

[6] = biological target: Human immunodeficiency virus type 1 protease (Human immunodeficiency virus 1) (UniProt Q72874); experiment: Effective dose against protease of human immunodeficiency virus type 1
[7] = biological target: Human immunodeficiency virus type 1 protease (Human immunodeficiency virus 1) (UniProt Q72874); experiment: Initial effective dose against protease of human immunodeficiency virus type 1

Chain of Nitric oxide synthase, inducible (Homo sapiens) (P35228 whole entry): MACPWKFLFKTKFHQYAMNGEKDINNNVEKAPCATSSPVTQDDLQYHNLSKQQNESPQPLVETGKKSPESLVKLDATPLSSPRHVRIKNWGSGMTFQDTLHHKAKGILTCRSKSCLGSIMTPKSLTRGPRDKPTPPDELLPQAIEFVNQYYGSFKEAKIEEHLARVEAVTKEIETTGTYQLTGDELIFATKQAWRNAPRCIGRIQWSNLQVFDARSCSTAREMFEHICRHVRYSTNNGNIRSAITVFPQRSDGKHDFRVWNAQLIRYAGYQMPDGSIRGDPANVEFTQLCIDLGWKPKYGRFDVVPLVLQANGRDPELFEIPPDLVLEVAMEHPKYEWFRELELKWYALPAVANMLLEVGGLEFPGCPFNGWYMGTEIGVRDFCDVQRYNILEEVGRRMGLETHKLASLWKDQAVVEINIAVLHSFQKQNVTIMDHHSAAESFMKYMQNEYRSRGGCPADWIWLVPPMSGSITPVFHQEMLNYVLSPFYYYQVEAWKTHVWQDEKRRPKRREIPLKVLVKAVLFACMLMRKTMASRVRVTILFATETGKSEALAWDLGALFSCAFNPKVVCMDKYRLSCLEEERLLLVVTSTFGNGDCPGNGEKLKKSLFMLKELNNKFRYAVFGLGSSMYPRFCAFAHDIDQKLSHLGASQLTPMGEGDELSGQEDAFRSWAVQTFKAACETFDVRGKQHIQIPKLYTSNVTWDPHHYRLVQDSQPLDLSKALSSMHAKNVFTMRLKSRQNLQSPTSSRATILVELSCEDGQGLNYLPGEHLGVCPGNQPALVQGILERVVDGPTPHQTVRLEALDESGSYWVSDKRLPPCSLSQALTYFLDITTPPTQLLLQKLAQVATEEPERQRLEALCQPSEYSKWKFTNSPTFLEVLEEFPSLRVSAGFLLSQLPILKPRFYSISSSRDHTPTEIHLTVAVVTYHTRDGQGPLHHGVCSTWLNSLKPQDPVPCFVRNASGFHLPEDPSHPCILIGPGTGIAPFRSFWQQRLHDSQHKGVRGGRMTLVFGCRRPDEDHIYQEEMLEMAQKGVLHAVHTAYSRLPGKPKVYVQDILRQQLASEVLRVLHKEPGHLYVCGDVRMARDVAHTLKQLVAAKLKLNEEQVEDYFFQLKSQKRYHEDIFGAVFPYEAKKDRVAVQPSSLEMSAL
Chain of Nitric oxide synthase 1 (Homo sapiens) (P29475 whole entry): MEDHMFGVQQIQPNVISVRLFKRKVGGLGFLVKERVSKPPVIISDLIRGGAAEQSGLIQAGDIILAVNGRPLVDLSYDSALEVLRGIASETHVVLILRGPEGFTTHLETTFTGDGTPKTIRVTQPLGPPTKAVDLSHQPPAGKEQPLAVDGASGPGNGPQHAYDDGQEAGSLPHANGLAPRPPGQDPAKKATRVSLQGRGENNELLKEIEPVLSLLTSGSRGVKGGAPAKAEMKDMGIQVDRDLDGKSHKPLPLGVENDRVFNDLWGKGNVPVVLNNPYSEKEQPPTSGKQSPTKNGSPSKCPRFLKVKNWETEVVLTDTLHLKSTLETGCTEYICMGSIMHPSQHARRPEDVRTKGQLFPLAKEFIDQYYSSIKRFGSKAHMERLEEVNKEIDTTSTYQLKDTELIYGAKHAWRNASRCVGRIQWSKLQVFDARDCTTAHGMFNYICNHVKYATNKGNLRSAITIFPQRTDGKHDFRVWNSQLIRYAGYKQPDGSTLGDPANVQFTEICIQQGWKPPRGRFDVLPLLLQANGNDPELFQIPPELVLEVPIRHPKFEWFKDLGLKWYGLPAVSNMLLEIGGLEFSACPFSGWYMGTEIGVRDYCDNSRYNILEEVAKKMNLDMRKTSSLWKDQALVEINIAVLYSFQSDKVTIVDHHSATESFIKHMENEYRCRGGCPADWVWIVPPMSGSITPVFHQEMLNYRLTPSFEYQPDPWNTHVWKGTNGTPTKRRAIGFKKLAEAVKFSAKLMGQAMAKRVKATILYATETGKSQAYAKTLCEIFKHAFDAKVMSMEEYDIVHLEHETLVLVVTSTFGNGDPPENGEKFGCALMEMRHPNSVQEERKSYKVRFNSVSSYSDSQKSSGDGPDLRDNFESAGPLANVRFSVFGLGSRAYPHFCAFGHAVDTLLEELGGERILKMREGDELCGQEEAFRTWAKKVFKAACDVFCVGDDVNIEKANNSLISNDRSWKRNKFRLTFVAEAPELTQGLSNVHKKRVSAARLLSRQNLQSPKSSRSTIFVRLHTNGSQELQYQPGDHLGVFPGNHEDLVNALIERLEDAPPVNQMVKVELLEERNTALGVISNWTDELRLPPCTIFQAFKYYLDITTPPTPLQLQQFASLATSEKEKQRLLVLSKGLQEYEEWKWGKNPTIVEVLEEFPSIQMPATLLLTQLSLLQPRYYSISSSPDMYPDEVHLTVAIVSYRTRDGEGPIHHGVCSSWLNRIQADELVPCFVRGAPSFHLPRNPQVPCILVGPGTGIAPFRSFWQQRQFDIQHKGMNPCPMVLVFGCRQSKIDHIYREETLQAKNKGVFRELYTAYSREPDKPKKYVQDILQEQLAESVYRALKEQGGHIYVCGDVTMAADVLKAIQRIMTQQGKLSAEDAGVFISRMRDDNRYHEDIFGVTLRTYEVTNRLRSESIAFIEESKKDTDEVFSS

IC50 (Chymotrypsin-C) | ED90 [6] | ED50 [7] | SMILES | IC50 [1] | Inhibition [2] | IC50 [3] | Inhibition [4] | Inhibition [5]
– | – | – | Nc1ccc2c(c1)c(=O)oc1ccc(CBr)cc12 | 50 µM | 120 µM | > 100 µM and ~100 µM | 200 µM | 110 µM
Inactive | – | – | Cc1ccc2oc(=O)c3cc(N)ccc3c2c1 | ~100 µM | 600 µM | > 100 µM | 900 µM | 150 µM
– | – | – | O=c1oc2ccc(CBr)cc2c2ccc([N+](=O)[O-])cc12 | 10 µM | 120 µM | > 100 µM | 250 µM | 60 µM
– | – | – | Cc1ccc2oc(=O)c3cc([N+](=O)[O-])ccc3c2c1 | 50 µM | – | > 100 µM | – | –
– | 0.1 µM | 300 µM | CCC[C@@]1(CCc2ccccc2)CC(O)=C([C@H](CC)c2cccc(NS(=O)(=O)c3ccc(C(F)(F)F)cn3)c2)C(=O)O1 | – | – | – | – | –
– | – | – | O=[N+]([O-])c1cccc2cn[nH]c12 | – | 8 µM | – | 15 µM | 15 µM
